The values below come from patent US7973047B2, “Beta-Secretase modulators and methods of use” (Amgen Inc., priority 2010, dated 2011).

This experiment concerns Aβ40 in conditioned medium of cells stably expressing Amyloid Precursor Protein (APP). As to the kind of experiment: BACE cell-based assay: Aβ40 in conditioned medium by sandwich ELISA. The settings on record: cell based assay data, Table 4; unit inferred; read-out: Cell Assay. The method, boiled down:
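Aβ40 in conditioned medium was read by time-resolved fluorescence sandwich ELISA (capture pAb40, detection biotinylated 6E10, 4° C incubations). Compounds were applied for 24 h to cells stably expressing APP, at 10 doses from 100 or 10 μM top, 0.1% DMSO. IC50 derived from percent of control.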
On the technique in general: ELISA stands for enzyme-linked immunosorbent assay.

Some results are limits rather than exact numbers.

Regarding `CC(=O)N[C@@H](Cc1ccc(F)cc1)[C@H](O)CN[C@H]1C[C@]2(C[C@H](C)C2)Oc2ncc(CC(C)(C)C)cc21` [compound 767, N-((1S,2R)-3-(((1s,3R,4′S)-6′-(2,2-dimethylpropyl)-3-methyl-3′,4′-dihydrospiro[cyclobutane-1,2′-pyrano[2,3-b]pyridin]-4′-yl)amino)-1-((4-fluorophenyl)methyl)-2-hydroxypropyl)acetamide], the IC50 was 5.7 nM.

Consider `CC(=O)N[C@@H](Cc1cccc(F)c1F)[C@H](O)CN[C@H]1C[C@]2(C[C@@H](C)C2)Oc2ncc(CC(C)(C)C)cc21` [compound 768, N-((1S,2R)-1-((2,3-difluorophenyl)methyl)-3-(((1r,3S,4′S)-6′-(2,2-dimethylpropyl)-3-methyl-3′,4′-dihydrospiro[cyclobutane-1,2′-pyrano[2,3-b]pyridin]-4′-yl)amino)-2-hydroxypropyl)acetamide], for which the IC50 worked out at 38.9 nM.

As for `CC(=O)N[C@@H](Cc1cccc(F)c1F)[C@H](O)CN[C@H]1C[C@]2(C[C@H](C)C2)Oc2ncc(CC(C)(C)C)cc21` [compound 769, N-((1S,2R)-1-((2,3-difluorophenyl)methyl)-3-(((1s,3R,4′S)-6′-(2,2-dimethylpropyl)-3-methyl-3′,4′-dihydrospiro[cyclobutane-1,2′-pyrano[2,3-b]pyridin]-4′-yl)amino)-2-hydroxypropyl)acetamide], the IC50 amounted to 33.8 nM.

Regarding `CC(=O)N[C@@H](Cc1cccc(F)c1)[C@H](O)CN[C@H]1C[C@]2(C[C@H](C)C2)Oc2ncc(CC(C)(C)C)cc21` [compound 770, N-((1S,2R)-3-(((1s,3R,4′S)-6′-(2,2-dimethylpropyl)-3-methyl-3′,4′-dihydrospiro[cyclobutane-1,2′-pyrano[2,3-b]pyridin]-4′-yl)amino)-1-((3-fluorophenyl)methyl)-2-hydroxypropyl)acetamide], the IC50 turned out to be 2.46 nM.

`CC(=O)N[C@@H](Cc1ccccc1)[C@H](O)CN[C@H]1CC2(CCC2)Oc2ccc(NC3CCCC3)cc21` [compound 771]: the IC50 amounted to 166 nM.

In the case of `CC(=O)N[C@@H](Cc1ccccc1)[C@H](O)CN[C@H]1CC2(CCC2)Oc2ccc(NC(C)(C)C)cc21` [compound 772], the IC50 turned out to be 981 nM.

Take `CC(=O)N[C@@H](Cc1cc(F)cc(F)c1)[C@H](O)CN[C@H]1CC2(CCC2)Oc2c1cc(Cl)cc2-n1ccnc1` [compound 773]: the IC50 amounted to 21.9 nM.

As to `CC(=O)N[C@@H](Cc1cc(F)cc(F)c1)[C@H](O)CN[C@H]1CC2(CCC2)Oc2ccc(Br)cc21` [compound 774], the IC50 amounted to 88.2 nM.

Regarding `CC(=O)N[C@@H](Cc1cc(F)cc(F)c1)[C@H](O)CN[C@H]1CC2(CCC2)Oc2c1cc(Cl)cc2-n1cnc2ccccc21` [compound 775], the IC50 came to 212 nM.

Consider `CC(=O)N[C@@H](Cc1cc(F)cc(F)c1)[C@H](O)CN[C@H]1CC2(CCC2)Oc2c1cc(Cl)cc2-n1cccn1` [compound 776], for which the IC50 turned out to be 124 nM.

For the molecule `CC(=O)N[C@@H](Cc1cc(F)cc(F)c1)[C@H](O)CN[C@H]1CC2(CCC2)Oc2ccc(-n3cccn3)cc21` [compound 777], the IC50 is 41.2 nM.

Turning to `CC(=O)N[C@@H](Cc1ccccc1)[C@H](O)CN[C@H]1CC2(CCC2)Oc2ccc(-c3cccs3)cc21` [compound 778], the IC50 turned out to be 83.3 nM.

On to `CC(=O)N[C@@H](Cc1ccccc1)[C@H](O)CN[C@H]1CC2(CCC2)Oc2ccc(-c3ccn(CC(C)C)n3)cc21` [compound 779], for which the IC50 was found to be 190 nM.

Take `CC(=O)N[C@@H](Cc1cc(F)cc(F)c1)[C@H](O)CN[C@H]1CC2(CCC2)Oc2ccc(-c3ccn(CC(C)C)n3)cc21` [compound 780]: the IC50 turned out to be 1650 nM.

As for `CC(=O)N[C@@H](Cc1cc(F)cc(F)c1)[C@@H](O)CN[C@H]1CC2(CCC2)Oc2ccc(-n3cccn3)cc21` [compound 781], the IC50 came out at 1160 nM.

`CC(=O)N[C@@H](Cc1cc(F)cc(F)c1)[C@H](O)CN[C@H]1CC2(CCC2)Oc2ccc(-n3ccnc3)cc21` [compound 782]: the IC50 was 81.6 nM.

Turning to `CC(=O)N[C@@H](Cc1ccccc1)[C@H](O)CN[C@H]1CC2(CCC2)Oc2ccc(-c3ccn(C)n3)cc21` [compound 783], the IC50 is 3240 nM.

Regarding `CC(=O)N[C@@H](Cc1cc(F)cc(F)c1)[C@H](O)CN[C@H]1CC2(CCC2)Oc2ccc(-c3ccn(C)n3)cc21` [compound 784], the IC50 came to 1650 nM.

`CC(=O)N[C@@H](Cc1cc(F)cc(F)c1)[C@H](O)CN[C@H]1CC2(CCC2)Oc2ccc(-c3cccs3)cc21` [compound 785]: the IC50 worked out at 2970 nM.

Consider `CC(=O)N[C@@H](Cc1cc(F)cc(F)c1)[C@@H](O)CN[C@H]1CC2(CCC2)Oc2c1cc(Cl)cc2-n1cccn1` [compound 786], for which the IC50 amounted to 1370 nM.

As to `CC(=O)N[C@@H](Cc1cc(F)cc(F)c1)[C@H](O)CN[C@H]1CC2(CCC2)Oc2cc(Br)ccc21` [compound 787], the IC50 is ≥ 10000 nM.

Take `CC(=O)Nc1ccc2c(c1)[C@@H](NC[C@@H](O)[C@H](Cc1cc(F)cc(F)c1)NC(C)=O)CC1(CCC1)O2` [compound 789]: the IC50 was 17.7 nM.

As for `CC(=O)N[C@@H](Cc1cc(F)cc(F)c1)[C@H](O)CN[C@H]1CC2(CCC2)Oc2ccc(N[C@@H]3CCOC3)cc21` [compound 790], the IC50 amounted to 58.5 nM.

Take `CC(=O)N[C@@H](Cc1cc(F)cc(F)c1)[C@H](O)CN[C@H]1CC2(CCC2)Oc2ccc(-n3nccn3)cc21` [compound 791]: the IC50 was found to be 803 nM.

In the case of `CC(=O)N[C@@H](Cc1cc(F)cc(F)c1)[C@H](O)CN[C@H]1CC2(CCC2)Oc2ccc(-n3cncn3)cc21` [compound 792], the IC50 was determined as 137 nM.

As for `CC(=O)N[C@@H](Cc1cc(F)cc(F)c1)[C@H](O)CN[C@H]1CC2(CCC2)Oc2ccc(N3CCCC3=O)cc21` [compound 793], the IC50 worked out at 359 nM.

On to `CC(=O)N[C@@H](Cc1ccccc1)[C@H](O)CN[C@H]1CC(C)(C)Oc2cnc(CC(C)(C)C)cc21` [compound 794], for which the IC50 came to 34.8 nM.

As to `CC(=O)N[C@@H](Cc1cc(F)cc(F)c1)[C@H](O)CN[C@H]1CC2(CCC2)Oc2ccc(N3CCC3=O)cc21` [compound 795], the IC50 was 255 nM.

On to `CC(=O)N[C@@H](Cc1cc(F)cc(Cl)c1)[C@H](O)CN[C@H]1CC(C)(C)Oc2cnc(CC(C)(C)C)cc21` [compound 796], for which the IC50 was found to be 8.39 nM.

Consider `CCC(=O)N[C@@H](Cc1cc(F)cc(Cl)c1)[C@H](O)CN[C@H]1CC(C)(C)Oc2cnc(CC(C)(C)C)cc21` [compound 797], for which the IC50 was found to be 11.3 nM.

On to `CC(=O)N[C@@H](Cc1cccc(F)c1)[C@H](O)CN[C@H]1CC(C)(C)Oc2cnc(CC(C)(C)C)cc21` [compound 798], for which the IC50 was found to be 6.72 nM.

Consider `CC(=O)N[C@@H](Cc1ccc(F)cc1)[C@H](O)CN[C@H]1CC(C)(C)Oc2cnc(CC(C)(C)C)cc21` [compound 799], for which the IC50 was 45.4 nM.

In the case of `CC(=O)N[C@@H](Cc1cc(F)cc(F)c1)[C@H](O)CN[C@H]1CC(C)(C)Oc2cnc(CC(C)(C)C)cc21` [compound 800], the IC50 turned out to be 3.56 nM.

On to `CC(=O)N[C@@H](Cc1cc(F)cc(F)c1)[C@H](O)CN[C@H]1CC2(CCC2)Oc2cc(F)c(Br)cc21` [compound 801], for which the IC50 was found to be 571 nM.

Turning to `CC(=O)N[C@@H](Cc1cc(F)cc(F)c1)[C@H](O)CN[C@H]1CC(C)(C)Oc2cc(F)c(Br)cc21` [compound 802], the IC50 worked out at 525 nM.

For `CC(=O)N[C@@H](Cc1cc(F)cc(F)c1)[C@H](O)CN[C@H]1CC2(CCC2)Oc2cc(F)c(N[C@@H]3CCOC3)cc21` [compound 803], the IC50 was found to be 116 nM.

As to `CC(=O)N[C@@H](Cc1cc(F)cc(F)c1)[C@H](O)CN[C@H]1CC2(CCC2)Oc2cc(F)ccc21` [compound 804], the IC50 was determined as 2950 nM.

With `CC(=O)N[C@@H](Cc1cc(F)cc(NC2CCOCC2)c1)[C@H](O)CN[C@H]1CC2(CCC2)Oc2ncc(CC(C)(C)C)cc21` [compound 805], the IC50 was 5.14 nM.

Turning to `CC(=O)N[C@@H](Cc1cc(F)cc(F)c1)[C@H](O)CN[C@H]1CC2(CCC2)Oc2cc(F)c(NC3CCOCC3)cc21` [compound 806], the IC50 was 452 nM.

On to `CC(=O)N[C@@H](Cc1cccc(F)c1)[C@H](O)CN[C@H]1CC2(CCC2)Oc2cc(F)c(-n3cccn3)cc21` [compound 807], for which the IC50 came out at 489 nM.

As for `CC(=O)N[C@@H](Cc1ccc(F)cc1)[C@H](O)CN[C@H]1CC2(CCC2)Oc2cc(F)c(-n3cccn3)cc21` [compound 808], the IC50 came out at 1940 nM.

On to `CC(=O)N[C@@H](CC1CCC1)[C@H](O)CN[C@H]1CC2(CCC2)Oc2ncc(CC(C)(C)C)cc21` [compound 809, N-((1S,2R)-1-(cyclobutylmethyl)-3-(((4′S)-6′-(2,2-dimethylpropyl)-3′,4′-dihydrospiro[cyclobutane-1,2′-pyrano[2,3-b]pyridin]-4′-yl)amino)-2-hydroxypropyl)acetamide], for which the IC50 worked out at 78.7 nM.

Regarding `CC(=O)N[C@@H](Cc1ccccc1Br)[C@H](O)CN[C@H]1CC2(CCC2)Oc2ncc(CC(C)(C)C)cc21` [compound 810], the IC50 worked out at 197 nM.

Take `CC(=O)N[C@@H](Cc1c(F)cc(F)cc1F)[C@H](O)CN[C@H]1CC2(CCC2)Oc2ncc(CC(C)(C)C)cc21` [compound 813]: the IC50 came to 100 nM.

For `CC(=O)N[C@@H](Cc1ccc(F)c(F)c1F)[C@H](O)CN[C@H]1CC2(CCC2)Oc2ncc(CC(C)(C)C)cc21` [compound 814], the IC50 was 56.3 nM.

On to `CC(=O)N[C@@H](Cc1c(F)cc(F)cc1F)[C@H](O)CN[C@H]1CC2(CCC2)Oc2ncc(CC(C)C)cc21` [compound 815], for which the IC50 came out at 224 nM.

For the molecule `CC(=O)N[C@@H](Cc1ccc(F)c(F)c1F)[C@H](O)CN[C@H]1CC2(CCC2)Oc2ncc(CC(C)C)cc21` [compound 816], the IC50 is 137 nM.

For the molecule `CC(=O)N[C@@H](Cc1ccc(Cl)cc1)[C@H](O)CN[C@H]1CC2(CCCC2)Oc2ncc(CC(C)(C)C)cc21` [compound 817], the IC50 turned out to be 132 nM.

On to `CC(=O)N[C@@H](Cc1ccc(F)cc1)[C@H](O)CN[C@H]1CC2(CCC2)Oc2ncc(Cc3ccccc3)cc21` [compound 818], for which the IC50 came to 1800 nM.
